Publication PMC12748266, “Testing antimicrobial peptides inhibiting protein synthesis in living E. coli and K. pneumoniae using bio-orthogonal non-canonical amino-acid tagging” (Frontiers in Microbiology, 2025)
In brackets after ≈: the same amount, converted by molar mass. No end group written: not given here.

Tests used:
[1] = tested on: K. pneumoniae ATCC 700603; assay: microbe, parasite or virus in culture; assay type: cell-based, Klebsiella pneumoniae; conditions: for MIC for K. pneumoniae relative to E. coli: supplemented M9, 5 × 10^6 cells/mL; for MIC: 18 h, 37 °C, mode of at least three experiments
Experimental: […] […] Serially two-fold dilution (1:1) were performed across subsequent wells to a final volume of 50 μL. […] […] The plates were sealed with parafilm to minimize evaporation and incubated at 37 °C for 18 h. The minimum inhibitory concentration (MIC) was visually determined as the lowest peptide concentration in a well with no visible bacterial growth. Data are reported as the mode of at least three independent experiments.

[2] = tested on: K. pneumoniae ATCC 700603; assay: BONCAT: HPG incorporation into newly synthesized proteins, flow cytometry; assay type: cell-based, Klebsiella pneumoniae; conditions: compound at MIC; for Fluorescence Intensity (% of Control): 10 min pre-incubation then 30 min HPG, untreated = 100%, mean, n ≥ 3
Experimental: We used a modified protocol from [Lindivat et al. (2020)]. Briefly, overnight cultures of E. coli ATCC 25922 or K. pneumoniae ATCC 700603, prepared as described above, were diluted to a final concentration of 5×10^6 CFU/mL and allowed to adjust for 30 min at 37 °C. The culture was then incubated at 37 °C in the dark for 10 or 30 min in the presence or absence of each peptide or antibiotic at various concentrations, with a final volume of 1 mL. At this point, only in certain specified experimental assays, the compounds were removed from the supernatant by centrifugation (16,000 × g for 5 min) and bacteria were washed and resuspended in fresh supplemented M9 medium. Then, 32 μL of a 500 μM homopropargylglycine (HPG) solution were added to each sample, resulting in a final concentration of 16 μM in a finale volume of 1 mL. Also included in each assay were two untreated controls containing only bacteria and bacteria treated with 16 μM HPG alone, respectively. All samples were then incubated at 37 °C in the dark for 30 min. After incubation, samples were washed once with 1X filtered Phosphate Buffered Saline (PBS) (centrifuged at 16,000 x g for 5 min) and resuspended in PBS. After washing, samples were fixed with formaldehyde (Sigma Aldrich, USA) to a final concentration of 3% in 1 mL for 1 h at 25 °C. Subsequently, the samples were centrifuged at 16,000 x g for 5 min and resuspended in 1 mL of PBS. If not analysed immediately, the fixed samples were stored at 4 °C prior to performing the click chemistry reaction. Samples were centrifugated at 16,000 x g for 5 min and bacteria cells were dehydrated by ethanol that was added sequentially to achieve a final concentration of 50% (v/v) (3 min of incubation), 80% (v/v) (3 min of incubation), and 95% (v/v) (3 min of incubation). After dehydration, the samples were centrifugated (16,000 × g, 5 min) and resuspended in PBS. For cell analysis by SDS-PAGE, the following variations were implemented: bacterial cells were diluted in supplemented M9 medium to a final density of ~ 1 × 10^9 CFU/mL, and HPG was added to the samples at a final concentration of 160 μM. Bacteria were incubated with HPG for 0, 15, 30, 60, or 120 min at 37 °C in the dark.
The click reaction was carried out according to [Rostovtsev et al. (2002)]. 15 μL of a pre-mix solution (prepared as described above) were added to each sample containing fixed bacteria that had incorporated HPG (30 μL of pre-mix solution in case of samples prepared for SDS-PAGE analysis), resulting in the following final concentrations in each sample: 0.1 mM copper sulfate, 0.5 mM Tris (3-hydroxypropyltriazolylmethyl)amine (THPTA), and 2.5 μM Alexa Fluor azide 488. Additionally, 50 μL of freshly prepared 100 mM sodium ascorbate and 50 μL of 100 mM aminoguanidine were added (100 μL in case of samples prepared for SDS-PAGE analysis), bringing the final volume to 1 mL. The samples were gently inverted once to mix and incubated for 30 min in the dark at 25 °C. […]
(§1) An overnight culture of E. coli ATCC 25922, or of K. pneumoniae ATCC 700603, prepared as described above, was diluted to a final concentration of 5 × 10^6 CFU/mL and allowed to adjust for 30 min at 37 °C under shaking. Membrane permeabilization of bacteria was then assessed by incubating bacteria at 37 °C, in a final volume of 1 mL, with varying concentrations of each peptide or antibiotic used for the BONCAT assay. […] The fluorescence of untreated cells was used to establish the gating for positive PI-stained cells. […]

[3] = tested on: E. coli ATCC 25922; assay: BONCAT protein synthesis inhibition after antimicrobial washout; assay type: cell-based, Escherichia coli; conditions: 10 or 30 min at MIC (time not given), then 30 min HPG
Experimental: We used a modified protocol from [Lindivat et al. (2020)]. Briefly, overnight cultures of E. coli ATCC 25922 or K. pneumoniae ATCC 700603, prepared as described above, were diluted to a final concentration of 5×10^6 CFU/mL and allowed to adjust for 30 min at 37 °C. The culture was then incubated at 37 °C in the dark for 10 or 30 min in the presence or absence of each peptide or antibiotic at various concentrations, with a final volume of 1 mL. At this point, only in certain specified experimental assays, the compounds were removed from the supernatant by centrifugation (16,000 × g for 5 min) and bacteria were washed and resuspended in fresh supplemented M9 medium. […] If not analysed immediately, the fixed samples were stored at 4 °C prior to performing the click chemistry reaction. […]
as §1

RRIRPRPPRLPRPRPRPLPFPRPGPRPIPRPLPFP [Bac7(1–35)]
MIC for K. pneumoniae relative to E. coli [1]: 4 fold
Fluorescence Intensity (% of Control) [2]: 6 % of Control

RRIRPRPPRLPRPRPR [Bac7(1–16)]
MIC ([1]; Mueller Hinton, 2,5x10^5 CFU/mL): 4 µM
MIC for K. pneumoniae relative to E. coli [1]: 4 fold
MIC ([1]; supplemented M9 medium, 5 × 10^6 CFU/mL, visual): 4 µM
Fluorescence Intensity (% of Control) [2]: 18 % of Control

O=C(N[C@H](CO)[C@H](O)c1ccc([N+](=O)[O-])cc1)C(Cl)Cl [CHL, Chloramphenicol]
Reduction in fluorescence after washout [3]: lost most of its inhibitory effects once removed from the medium

CO[C@H]1/C=C/O[C@@]2(C)Oc3c(C)c(O)c4c(O)c(c(/C=N/N5CCN(C)CC5)c(O)c4c3C2=O)NC(=O)/C(C)=C\C=C\[C@H](C)[C@H](O)[C@@H](C)[C@@H](O)[C@@H](C)[C@H](OC(C)=O)[C@@H]1C [RIF, Rifampicin]
MIC ([1]; Klebsiella pneumoniae, ATCC700603, supplemented M9 medium, 5 × 10^6 CFU/mL, visual): 16 µM (≈ 13.2 µg/mL)
Reduction in fluorescence ([2]; 10 min + 30 min HPG): did not affect fluorescence
Fluorescence Intensity (% of Control) [2]: 87 % of Control
Reduction in fluorescence after washout [3]: over 20%
